Source: paper PMC6934184, “Selective DNA-PKcs inhibition extends the therapeutic index of localized radiotherapy and chemotherapy” (The Journal of Clinical Investigation, 2019)

Biological target: T1, PRKCI (PKC iota) (Homo sapiens, UniProt P41743)
T1 construct: purchased Thermo Fisher Scientific (Life Technologies) SelectScreen
Assay: SelectScreen Z'LYTE
Type: biochemical
Outline: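 SelectScreen broad panel; activity (Z'LYTE, Adapta) plus binding formats. ATP: Km app for CSF1R Z'LYTE; 10 for CAMK1 Adapta. Readout = % per kinase.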

T1 sequence (P41743 whole entry): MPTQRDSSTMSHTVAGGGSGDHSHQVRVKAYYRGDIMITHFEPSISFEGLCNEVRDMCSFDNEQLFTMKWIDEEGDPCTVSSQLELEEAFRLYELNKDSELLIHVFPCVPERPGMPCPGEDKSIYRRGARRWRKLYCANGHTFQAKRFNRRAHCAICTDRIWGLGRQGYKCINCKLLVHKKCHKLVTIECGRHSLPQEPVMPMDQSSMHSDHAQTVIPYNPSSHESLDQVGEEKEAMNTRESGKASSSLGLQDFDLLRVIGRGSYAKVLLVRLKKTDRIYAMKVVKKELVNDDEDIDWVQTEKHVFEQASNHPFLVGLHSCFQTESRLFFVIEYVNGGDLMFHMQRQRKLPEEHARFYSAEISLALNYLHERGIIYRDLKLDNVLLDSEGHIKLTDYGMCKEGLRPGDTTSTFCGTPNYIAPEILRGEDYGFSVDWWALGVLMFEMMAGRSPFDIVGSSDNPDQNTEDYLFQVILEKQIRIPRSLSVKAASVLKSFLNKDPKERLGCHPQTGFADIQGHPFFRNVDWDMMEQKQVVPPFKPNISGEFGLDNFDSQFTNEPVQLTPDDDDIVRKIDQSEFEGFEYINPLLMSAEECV

CN(C(=O)CN1CCOCC1)c1ccc2sc3c(-c4cccc5c(=O)cc(N6CC7CCC(C6)O7)oc45)cccc3c2c1 [NU5455]
inhibition at 1 µM: -0.8%
